Measurements from ChEMBL document CHEMBL1773066, “Design, synthesis, biological activity, and ADME properties of pyrazolo[3,4-d]pyrimidines active in hypoxic human leukemia cells: a lead optimization study” (J Med Chem, 2011).
Converted amounts (≈) assume the structure as drawn. The source made the active and inactive calls. The rule behind the calls is not given here.

How the values were obtained:
[1] = biological target: T1, Signal transducer and activator of transcription 5A (Homo sapiens) (UniProt P42229); test: Inhibition of STAT5 phosphorylation in human MEG-01 cells under normoxic condition after 3 hrs by Western blotting; type: cell-based
T1 sequence (whole entry): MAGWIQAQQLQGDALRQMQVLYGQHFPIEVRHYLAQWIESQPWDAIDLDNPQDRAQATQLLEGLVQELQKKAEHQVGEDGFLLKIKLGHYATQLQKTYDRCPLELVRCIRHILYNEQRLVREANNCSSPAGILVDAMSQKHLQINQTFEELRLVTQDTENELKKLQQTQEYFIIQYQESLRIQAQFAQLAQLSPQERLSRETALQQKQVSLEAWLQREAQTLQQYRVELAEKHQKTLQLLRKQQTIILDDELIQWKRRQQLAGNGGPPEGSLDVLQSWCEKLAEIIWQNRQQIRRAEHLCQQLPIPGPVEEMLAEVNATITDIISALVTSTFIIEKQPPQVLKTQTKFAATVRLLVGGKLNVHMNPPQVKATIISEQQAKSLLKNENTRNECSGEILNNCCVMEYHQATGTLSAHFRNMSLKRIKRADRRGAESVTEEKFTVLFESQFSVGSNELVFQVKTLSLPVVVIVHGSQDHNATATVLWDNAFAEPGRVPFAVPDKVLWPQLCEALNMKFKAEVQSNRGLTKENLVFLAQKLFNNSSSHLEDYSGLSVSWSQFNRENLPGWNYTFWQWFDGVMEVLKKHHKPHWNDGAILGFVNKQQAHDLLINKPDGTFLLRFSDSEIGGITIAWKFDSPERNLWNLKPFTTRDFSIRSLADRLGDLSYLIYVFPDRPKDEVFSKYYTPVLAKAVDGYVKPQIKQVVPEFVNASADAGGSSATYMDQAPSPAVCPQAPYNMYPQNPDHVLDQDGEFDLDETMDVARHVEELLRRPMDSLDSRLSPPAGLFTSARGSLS

[2] = biological target: Tyrosine-protein kinase ABL1 (Homo sapiens, UniProt P00519)
Chain of Tyrosine-protein kinase ABL1 (P00519 whole entry): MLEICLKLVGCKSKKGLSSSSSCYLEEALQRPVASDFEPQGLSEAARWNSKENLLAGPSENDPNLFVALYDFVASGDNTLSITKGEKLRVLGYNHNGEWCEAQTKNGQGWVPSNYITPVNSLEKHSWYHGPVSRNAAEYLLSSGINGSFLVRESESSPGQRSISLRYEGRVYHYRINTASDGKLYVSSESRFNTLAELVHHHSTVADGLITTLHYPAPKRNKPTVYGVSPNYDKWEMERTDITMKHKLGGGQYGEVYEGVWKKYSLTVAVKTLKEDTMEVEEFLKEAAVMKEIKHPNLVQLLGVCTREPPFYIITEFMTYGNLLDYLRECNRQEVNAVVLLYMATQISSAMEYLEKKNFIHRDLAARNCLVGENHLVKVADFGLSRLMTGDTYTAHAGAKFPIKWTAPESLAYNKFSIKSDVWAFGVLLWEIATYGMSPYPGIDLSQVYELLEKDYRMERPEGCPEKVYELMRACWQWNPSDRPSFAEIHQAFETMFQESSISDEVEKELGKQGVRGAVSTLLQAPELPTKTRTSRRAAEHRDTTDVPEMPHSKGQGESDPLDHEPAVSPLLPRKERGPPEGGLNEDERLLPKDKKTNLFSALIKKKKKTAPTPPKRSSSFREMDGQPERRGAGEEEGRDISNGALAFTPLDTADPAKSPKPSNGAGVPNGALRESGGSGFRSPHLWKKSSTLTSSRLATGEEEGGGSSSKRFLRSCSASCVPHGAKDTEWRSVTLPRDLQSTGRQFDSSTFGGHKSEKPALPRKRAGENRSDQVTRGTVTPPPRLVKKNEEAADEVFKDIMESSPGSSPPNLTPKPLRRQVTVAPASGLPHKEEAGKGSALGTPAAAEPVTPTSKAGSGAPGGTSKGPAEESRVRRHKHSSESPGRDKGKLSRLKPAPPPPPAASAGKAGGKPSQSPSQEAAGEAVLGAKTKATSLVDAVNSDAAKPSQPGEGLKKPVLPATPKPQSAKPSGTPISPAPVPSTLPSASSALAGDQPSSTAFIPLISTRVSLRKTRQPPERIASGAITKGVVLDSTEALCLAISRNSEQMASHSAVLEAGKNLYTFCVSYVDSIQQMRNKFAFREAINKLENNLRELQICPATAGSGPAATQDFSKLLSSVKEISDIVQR
Description: Inhibition of human recombinant c-Abl by filter-binding assay

[3] = biological target: T1, Signal transducer and activator of transcription 5A (Homo sapiens); test: Inhibition of STAT5 phosphorylation in human MEG-01 cells under hypoxic condition after 3 hrs by Western blotting; type: cell-based
[4] = Apparent permeability of the compound at pH 7.4 by PAMPA assay; type: ADME
K562 [5] = test: cells; conditions: Homo sapiens, K562, 72 h
Description: Antiproliferative activity against human K562 cells under normoxic condition after 72 hrs by using CyQUANT GR dye

MEG-01 [6] = test: cells; conditions: Homo sapiens, MEG-01, 72 h
Description: Antiproliferative activity against human MEG01 cells under normoxic condition after 72 hrs by using CyQUANT GR dye

[7] = biological target: T1, Signal transducer and activator of transcription 5A (Homo sapiens); test: Inhibition of STAT5 phosphorylation in human KU812 cells under hypoxic condition after 3 hrs by Western blotting; type: cell-based
[8] = biological target: T1, Signal transducer and activator of transcription 5A (Homo sapiens); test: Inhibition of STAT5 phosphorylation in human KU812 cells under normoxic condition after 3 hrs by Western blotting; type: cell-based
[9] = Metabolic stability in human liver microsomes assessed as parent compound remaining after 60 mins by LC-MS analysis; type: ADME, Microsome; conditions: read-out: Stability
K562 [10] = test: cells; conditions: Homo sapiens, K562, 72 h; remark: listed apart in the source
Description: Antiproliferative activity against human K562 cells under hypoxic condition after 72 hrs by using CyQUANT GR dye

[11] = biological target: T2, Proto-oncogene tyrosine-protein kinase Src (Homo sapiens, UniProt P12931)
T2 sequence (P12931 2-536 limits assumed): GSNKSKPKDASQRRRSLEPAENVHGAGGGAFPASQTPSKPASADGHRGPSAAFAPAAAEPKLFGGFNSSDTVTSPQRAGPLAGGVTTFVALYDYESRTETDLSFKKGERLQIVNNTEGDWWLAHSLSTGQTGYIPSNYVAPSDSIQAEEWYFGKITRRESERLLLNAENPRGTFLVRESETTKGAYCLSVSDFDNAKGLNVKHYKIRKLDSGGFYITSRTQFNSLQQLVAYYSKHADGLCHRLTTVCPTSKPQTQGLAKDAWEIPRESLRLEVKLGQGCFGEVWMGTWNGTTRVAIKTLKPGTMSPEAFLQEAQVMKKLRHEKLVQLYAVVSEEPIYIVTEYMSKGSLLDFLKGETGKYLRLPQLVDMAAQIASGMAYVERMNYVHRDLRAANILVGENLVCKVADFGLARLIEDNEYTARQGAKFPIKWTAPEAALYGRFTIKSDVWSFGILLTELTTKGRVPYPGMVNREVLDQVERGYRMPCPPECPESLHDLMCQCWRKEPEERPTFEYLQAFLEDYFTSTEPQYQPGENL
Description: (§1) Inhibition of human recombinant c-Src by filter-binding assay

[12] = Solubility of the compound in water at pH 7.4; type: physicochemical
MEG-01 [13] = test: cells; conditions: Homo sapiens, MEG-01, 72 h; remark: listed apart in the source
Description: Antiproliferative activity against human MEG01 cells under hypoxic condition after 72 hrs by using CyQUANT GR dye

[14] = biological target: T1, Signal transducer and activator of transcription 5A (Homo sapiens); test: Inhibition of STAT5 phosphorylation in human K562 cells under normoxic condition after 3 hrs by Western blotting; type: cell-based
[15] = biological target: T1, Signal transducer and activator of transcription 5A (Homo sapiens); test: Inhibition of STAT5 phosphorylation in human K562 cells under hypoxic condition after 3 hrs by Western blotting; type: cell-based
[16] = biological target: T2, Proto-oncogene tyrosine-protein kinase Src; remark: listed apart in the source
Description: as §1

cells [17] = conditions: Homo sapiens, KU812, 72 h
Description: Antiproliferative activity against human KU812 cells under normoxic condition after 72 hrs by using CyQUANT GR dye

cells [18] = conditions: Homo sapiens, KU812, 72 h; remark: listed apart in the source
Description: Antiproliferative activity against human KU812 cells under hypoxic condition after 72 hrs by using CyQUANT GR dye

K562 [19] = test: Induction of HIF1alpha expression in human K562 cells under hypoxic condition assessed as HIF1alpha accumulation after 3 hrs by Western blotting; type: functional, cell-based
K562 [20] = test: Induction of apoptosis in human K562 cells assessed as caspase-3 mediated cleavage of PARP level at 10 uM after 72 hrs under hypoxic condition by immunoblot analysis; type: functional, cell-based
K562 [21] = test: Induction of apoptosis in human K562 cells assessed as caspase-3 activity at 10 uM under normoxic condition after 72 hrs by fluorescence microplate reader; type: functional, cell-based
K562 [22] = test: Inhibition of carbonic anhydrase 9 mRNA expression in human K562 cells under normoxic condition at 10 uM after 72 hrs by quantitative RT-PCR analysis; type: functional, cell-based
K562 [23] = test: Inhibition of carbonic anhydrase 9 mRNA expression in human K562 cells under hypoxic condition at 10 uM after 72 hrs by quantitative RT-PCR analysis; type: functional, cell-based
K562 [24] = test: Induction of apoptosis in human K562 cells assessed as caspase-3 activity at 10 uM under hypoxic condition after 72 hrs by fluorescence microplate reader; type: functional, cell-based
[25] = Cytotoxicity against mouse BA/F3 cells expressing wild type p210Bcr-Abl; type: functional; conditions: BaF3, read-out: LD50 (the source's name)
[26] = Cytotoxicity against mouse BA/F3 cells expressing p210Bcr-Abl T315I mutant; type: functional; conditions: BaF3, read-out: LD50 (the source's name)
[27] = Cytotoxicity against mouse BA/F3 cells expressing p210Bcr-Abl E255K mutant; type: functional; conditions: BaF3, read-out: LD50 (the source's name)
[28] = Cytotoxicity against mouse BA/F3 cells expressing p210Bcr-Abl Y253F mutant; type: functional; conditions: BaF3, read-out: LD50 (the source's name)

SMILES	inhibition [1]	inhibition [3]	Papp [4] [×10⁻⁶ cm/s]	IC50 (K562 [5]) [µM]	IC50 (MEG-01 [6]) [µM]	inhibition [7]	inhibition [8]	remaining at 1 h [9] [%]	IC50 (K562 [10]) [µM]	solubility [12] [µg/mL]	IC50 (MEG-01 [13]) [µM]	inhibition [14]	inhibition [15]	IC50 (cells [17]) [µM]	other results
ClC(Cn1ncc2c(NCc3ccccc3)nc(SCCN3CCOCC3)nc21)c1ccccc1 (stereo not drawn)	Active	Active	9.1	3.1	23.7	Active	Active	95	5.1	1.2 (≈ 2.36 µM)	19.7	–	–	–	Ki [2]: 0.09 µM; Ki [11]: 2.9 µM
CC(Cn1ncc2c(Nc3cccc(Cl)c3)ncnc21)c1ccccc1 (stereo not drawn)	–	–	13.5	–	–	–	–	75	–	< 0.04	–	–	–	–	–
ClC(Cn1ncc2c(Nc3ccccc3)nc(SCCN3CCOCC3)nc21)c1ccccc1 (stereo not drawn)	Active	Active	10	2.2	–	Active	Active	–	4.7	–	–	Active	Active	–	–
OCCNc1nc(NCCc2ccccc2)c2cnn(/C=C\c3ccccc3)c2n1	–	–	2.6	2.3	12.9	–	–	84	8.1	0.4 (≈ 0.999 µM)	34	–	–	–	Ki [2]: 0.22 µM; Ki [11]: 2.4 µM
ClC(Cn1ncc2c(NCCc3ccccc3)nc(SCCN3CCOCC3)nc21)c1ccccc1 (stereo not drawn)	–	–	–	–	–	–	–	–	–	–	–	–	–	–	Ki [16]: Not Active
Clc1ccc(C(Cl)Cn2ncc3c(NCc4ccncc4)ncnc32)cc1 (stereo not drawn)	Active	Active	5.4	12.7	14.6	Active	Active	90	20.4	12.3 (≈ 30.8 µM)	43.5	Active	Active	10.1	Ki [2]: 0.66 µM; IC50 (cells [18]): > 100 µM; Activity (K562 [19]): inactive; Ki [11]: 3.9 µM
CS(=O)(=O)c1nc(NCc2ccccc2)c2cnn(CC(Cl)c3ccccc3)c2n1 (stereo not drawn)	–	–	–	35.8	41.4	–	–	–	–	–	–	–	–	36.1	–
Clc1cccc(Nc2nc(N3CCOCC3)nc3c2cnn3CC(Cl)c2ccccc2)c1 (stereo not drawn)	Active	Active	14.8	12.2	7.7	Active	Active	90	4.6	0.13 (≈ 0.277 µM)	15	Active	Active	2.2	Ki [2]: 0.39 µM; IC50 (cells [18]): 16.1 µM; Activity (K562 [20]): Active; Activity (K562 [21]): Active; Activity (K562 [19]): inactive; inhibition (K562 [22]): Active; Ki [11]: 7.6 µM; inhibition (K562 [23]): Active; Activity (K562 [24]): Active
Clc1ccc(C(Cl)Cn2ncc3c(NCc4ccccn4)ncnc32)cc1 (stereo not drawn)	–	–	–	30.6	16.6	–	–	–	–	–	–	–	–	31.4	–
Fc1ccc(C(Cl)Cn2ncc3c(NCc4ccncc4)ncnc32)cc1 (stereo not drawn)	–	–	–	36.5	37.4	–	–	–	–	–	–	–	–	56.4	–
Fc1ccc(C(Cl)Cn2ncc3c(NCc4ccccn4)ncnc32)cc1 (stereo not drawn)	–	–	–	37.5	23.8	–	–	–	–	–	–	–	–	40.6	–
Clc1cccc(Nc2nc(SCCN3CCOCC3)nc3c2cnn3CC(Cl)c2ccccc2)c1 (stereo not drawn)	Active	Active	–	4.5	6.1	Active	Active	95	–	0.1 (≈ 0.189 µM)	–	Active	Active	–	–
Fc1ccc(CNc2ncnc3c2cnn3CC(Cl)c2ccc(Cl)cc2)cc1 (stereo not drawn)	Active	Active	–	9.2	6.2	Active	Active	94	2.8	< 0.04	6.1	Active	Active	8.1	IC50 (cells [18]): 13.3 µM; CC50 [25]: 0.7 µM; Activity (K562 [20]): Active; CC50 [26]: 0.7 µM; Activity (K562 [21]): Active; Activity (K562 [19]): inactive; CC50 [27]: 0.7 µM; Activity (K562 [24]): Active; CC50 [28]: 0.7 µM
Fc1ccc(CNc2ncnc3c2cnn3CC(Cl)c2ccc(F)cc2)cc1 (stereo not drawn)	–	–	11	–	–	–	–	82	–	< 0.04	–	–	–	–	–
